Measured values as given in paper PMC6934184, “Selective DNA-PKcs inhibition extends the therapeutic index of localized radiotherapy and chemotherapy” (The Journal of Clinical Investigation, 2019).

Target: T1, ALK L1196M (Homo sapiens, UniProt Q9UM73, L1196M)
T1 construct: purchased Thermo Fisher Scientific (Life Technologies) SelectScreen
Test: SelectScreen LanthaScreen
Assay type: binding
Settings: read-out: % displacement
In short: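 Percent values come from Thermo SelectScreen profiling of NU5455, combining activity and binding assays. CSF1R was run in Z'LYTE format at Km app ATP, and CAMK1 in Adapta format with ATP listed at 10.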

T1 sequence (Q9UM73 19-1620 L1196M): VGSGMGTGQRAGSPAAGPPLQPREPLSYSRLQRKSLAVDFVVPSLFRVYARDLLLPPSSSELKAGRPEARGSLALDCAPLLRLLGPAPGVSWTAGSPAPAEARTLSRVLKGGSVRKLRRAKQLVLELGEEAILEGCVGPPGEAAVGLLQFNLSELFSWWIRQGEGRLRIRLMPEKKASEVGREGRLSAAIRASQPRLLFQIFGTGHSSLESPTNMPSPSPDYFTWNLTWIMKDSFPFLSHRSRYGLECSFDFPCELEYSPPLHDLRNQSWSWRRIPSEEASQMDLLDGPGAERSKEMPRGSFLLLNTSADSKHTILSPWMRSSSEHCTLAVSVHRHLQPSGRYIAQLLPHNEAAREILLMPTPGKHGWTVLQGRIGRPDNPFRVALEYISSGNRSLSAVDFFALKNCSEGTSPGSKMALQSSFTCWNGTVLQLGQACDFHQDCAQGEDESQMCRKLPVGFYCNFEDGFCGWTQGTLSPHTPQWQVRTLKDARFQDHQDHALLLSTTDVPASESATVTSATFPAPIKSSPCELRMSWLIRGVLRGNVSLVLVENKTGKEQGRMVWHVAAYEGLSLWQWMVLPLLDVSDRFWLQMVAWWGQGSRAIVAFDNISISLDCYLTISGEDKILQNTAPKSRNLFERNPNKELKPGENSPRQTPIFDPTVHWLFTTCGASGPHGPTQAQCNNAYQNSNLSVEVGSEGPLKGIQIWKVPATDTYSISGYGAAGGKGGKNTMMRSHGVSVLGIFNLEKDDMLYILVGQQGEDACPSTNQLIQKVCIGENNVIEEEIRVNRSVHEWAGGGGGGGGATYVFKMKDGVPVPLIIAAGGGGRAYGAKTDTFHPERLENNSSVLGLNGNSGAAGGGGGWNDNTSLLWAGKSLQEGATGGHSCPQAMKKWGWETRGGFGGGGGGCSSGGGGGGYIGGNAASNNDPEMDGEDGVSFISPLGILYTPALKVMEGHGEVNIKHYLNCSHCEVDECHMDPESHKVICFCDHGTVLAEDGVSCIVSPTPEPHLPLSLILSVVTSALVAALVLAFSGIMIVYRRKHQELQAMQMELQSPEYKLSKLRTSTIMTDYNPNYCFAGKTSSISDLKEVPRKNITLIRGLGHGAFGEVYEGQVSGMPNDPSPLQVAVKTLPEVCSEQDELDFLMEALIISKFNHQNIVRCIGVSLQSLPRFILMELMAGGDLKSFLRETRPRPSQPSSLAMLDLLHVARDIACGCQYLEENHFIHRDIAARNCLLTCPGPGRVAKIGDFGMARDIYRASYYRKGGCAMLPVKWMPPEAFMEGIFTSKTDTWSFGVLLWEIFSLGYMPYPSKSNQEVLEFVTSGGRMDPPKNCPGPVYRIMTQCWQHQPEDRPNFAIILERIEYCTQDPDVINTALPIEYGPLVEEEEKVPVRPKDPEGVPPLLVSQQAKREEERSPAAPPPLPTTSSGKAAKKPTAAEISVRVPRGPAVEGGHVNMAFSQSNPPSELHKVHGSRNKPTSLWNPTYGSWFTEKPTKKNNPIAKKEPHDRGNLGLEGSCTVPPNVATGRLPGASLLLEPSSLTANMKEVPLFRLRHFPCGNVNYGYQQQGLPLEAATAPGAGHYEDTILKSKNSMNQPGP

## CN(C(=O)CN1CCOCC1)c1ccc2sc3c(-c4cccc5c(=O)cc(N6CC7CCC(C6)O7)oc45)cccc3c2c1 [NU5455]
  inhibition at 1 µM: -1.7%
